Data from patent US20110269811A1, “INHIBITORS OF SEMICARBAZIDE-SENSITIVE AMINE OXIDASE (SSAO) AND VAP-1 MEDIATED ADHESION USEFUL FOR TREATMENT AND PREVENTION OF DISEASES” (priority 2006, published 2011).

Experiments:
[1] = system: collagen-induced arthritis; assay: Collagen-induced arthritis by direct injection of Type II collagen; format: in vivo, B10RIII mice; settings: FIG. 15
Method: Collagen-induced arthritis can also be induced by direct injection of collagen. Groups of 15 male B10RIII mice were injected intradermally with Type II collagen in Complete Freund Adjuvant (CFA) on days 0 and 15. Mice were dosed p.o. starting from day 0 to day 28 with phosphate buffered saline (PBS), 5 mg/kg compound I-1-Z, 30 mg/kg compound I-1-Z or 0.2 mg/kg dexamethasone. […] Clinical scores were determined daily for each paw based on a scale between 0-5 based on joint erythema and swelling. Statistical analysis was by Student's t-test versus the PBS-treated disease control group.

A1 (h) = target: T1, A1 (h) (Homo sapiens, UniProt P30542); assay: Receptor binding screen, [^3H]DPCPX; settings: 10 uM Concentration of Compound I-1-Z; read-out: Mean Value, percent inhibition of control specific binding: A1 (h)
T1 construct: expressed in transfected cells; host or cells: CHO cells
T1 sequence (P30542 whole entry): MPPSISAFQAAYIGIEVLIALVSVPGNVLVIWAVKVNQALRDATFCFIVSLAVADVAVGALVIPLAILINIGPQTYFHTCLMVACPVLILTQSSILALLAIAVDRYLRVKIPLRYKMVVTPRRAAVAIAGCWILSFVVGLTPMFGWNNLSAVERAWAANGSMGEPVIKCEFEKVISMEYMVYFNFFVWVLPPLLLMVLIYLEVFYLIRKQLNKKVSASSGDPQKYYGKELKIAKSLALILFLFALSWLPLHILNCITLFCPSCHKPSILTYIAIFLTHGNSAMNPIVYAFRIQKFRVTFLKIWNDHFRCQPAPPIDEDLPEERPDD

A2A (h) = target: T2, A2A (h) (Homo sapiens, UniProt P29274); assay: Receptor binding screen, [^3H]CGS 21680; settings: 10 uM Concentration of Compound I-1-Z; read-out: Mean Value, percent inhibition of control specific binding: A2A (h)
T2 construct: expressed in transfected cells; host or cells: HEK-293 cells
T2 sequence (P29274 whole entry): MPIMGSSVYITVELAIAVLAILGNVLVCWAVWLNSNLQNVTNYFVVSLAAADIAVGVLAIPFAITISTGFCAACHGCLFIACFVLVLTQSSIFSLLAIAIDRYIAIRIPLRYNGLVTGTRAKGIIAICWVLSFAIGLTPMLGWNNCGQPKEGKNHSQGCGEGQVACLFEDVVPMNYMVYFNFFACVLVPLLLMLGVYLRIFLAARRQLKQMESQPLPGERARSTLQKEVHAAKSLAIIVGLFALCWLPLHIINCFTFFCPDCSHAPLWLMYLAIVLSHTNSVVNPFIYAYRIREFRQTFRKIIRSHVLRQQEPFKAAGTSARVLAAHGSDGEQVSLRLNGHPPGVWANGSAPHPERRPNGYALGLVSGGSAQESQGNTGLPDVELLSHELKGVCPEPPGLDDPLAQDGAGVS

BZD (central) = assay: Receptor binding screen, [^3H]flunitrazepam; design: species or system rat; settings: 10 uM Concentration of Compound I-1-Z
BZD (peripheral) = target: T3, BZD (peripheral) (Rattus norvegicus, UniProt P16257); assay: Receptor binding screen, [^3H]PK 11195; settings: 10 uM Concentration of Compound I-1-Z; read-out: Mean Value, percent inhibition of control specific binding: BZD (peripheral)
T3 construct: rat heart; from tissue; host or cells: rat heart

BB (non-selective) = assay: Receptor binding screen, [^125I][Tyr^4]bombesin; design: species or system rat; settings: 10 uM Concentration of Compound I-1-Z
Method: (§1) For Table 4 below, the specific ligand binding to the receptors is defined as the difference between the total binding and the nonspecific binding determined in the presence of an excess of unlabelled ligand. The results are expressed as a percent inhibition of control specific binding obtained in the presence of Compound I-1-Z. The IC50 values (concentration causing a half-maximal inhibition of control specific binding) and Hill coefficients (nH) were determined by non-linear regression analysis of the competition curves using Hill equation curve fitting. The inhibition constants (Ki) were calculated from the Cheng Prusoff equation (Ki=IC50/(1+(L/KD)), where L=concentration of radioligand in the assay, and KD=affinity of the radioligand for the receptor). In each experiment, the respective reference compound was tested concurrently with Compound I-1-Z in order to assess the assay suitability.

CB1 (h) = target: T4, CB1 (h) (Homo sapiens, UniProt P21554); assay: Receptor binding screen, [^3H]CP 55940; settings: 10 uM Concentration of Compound I-1-Z; read-out: Mean Value, percent inhibition of control specific binding: CB1 (h)
T4 construct: expressed in transfected cells; host or cells: CHO cells
T4 sequence (P21554 whole entry): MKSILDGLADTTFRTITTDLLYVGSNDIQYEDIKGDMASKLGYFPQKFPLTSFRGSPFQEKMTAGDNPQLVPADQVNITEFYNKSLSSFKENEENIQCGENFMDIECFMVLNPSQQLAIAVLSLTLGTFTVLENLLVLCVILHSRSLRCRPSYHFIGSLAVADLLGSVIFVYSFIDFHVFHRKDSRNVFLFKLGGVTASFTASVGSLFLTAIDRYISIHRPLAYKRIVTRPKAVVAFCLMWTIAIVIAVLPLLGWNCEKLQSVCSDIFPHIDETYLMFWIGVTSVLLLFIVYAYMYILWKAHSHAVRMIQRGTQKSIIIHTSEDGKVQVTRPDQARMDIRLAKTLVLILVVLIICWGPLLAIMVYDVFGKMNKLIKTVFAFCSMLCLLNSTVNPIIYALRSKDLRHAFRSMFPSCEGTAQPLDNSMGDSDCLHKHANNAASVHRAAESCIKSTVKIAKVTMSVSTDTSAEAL

PDGF = assay: Receptor binding screen, [^125I]PDGF BB, Balb/c 3T3 cells; settings: 10 uM Concentration of Compound I-1-Z
MC4 (h) = target: T5, MC4 (h) (Homo sapiens, UniProt P32245); assay: Receptor binding screen, [^125I]NDP-α-MSH; settings: 10 uM Concentration of Compound I-1-Z; read-out: Mean Value, percent inhibition of control specific binding: MC4 (h)
T5 construct: expressed in transfected cells; host or cells: CHO cells

MT1 (h) = target: T6, MT1 (h) (Homo sapiens, UniProt P48039); assay: Receptor binding screen, [^125I]iodomelatonin; settings: 10 uM Concentration of Compound I-1-Z; read-out: Mean Value, percent inhibition of control specific binding: MT1 (h)
T6 construct: expressed in transfected cells; host or cells: CHO cells
T6 sequence (P48039 whole entry): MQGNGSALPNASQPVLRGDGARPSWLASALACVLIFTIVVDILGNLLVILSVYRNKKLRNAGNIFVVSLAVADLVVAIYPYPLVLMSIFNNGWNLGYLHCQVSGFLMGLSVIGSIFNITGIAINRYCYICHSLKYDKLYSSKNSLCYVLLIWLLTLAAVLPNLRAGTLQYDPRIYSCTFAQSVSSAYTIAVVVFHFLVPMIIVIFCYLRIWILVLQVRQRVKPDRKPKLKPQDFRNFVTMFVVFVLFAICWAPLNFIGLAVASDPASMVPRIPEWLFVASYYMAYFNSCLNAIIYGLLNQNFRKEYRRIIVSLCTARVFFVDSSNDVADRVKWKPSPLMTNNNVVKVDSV

M3 (h) = target: T7, M3 (h) (Homo sapiens, UniProt P20309); assay: Receptor binding screen, [^3H]4-DAMP; settings: 10 uM Concentration of Compound I-1-Z; read-out: Mean Value, percent inhibition of control specific binding: M3 (h)
T7 construct: expressed in transfected cells; host or cells: CHO cells
T7 sequence (P20309 whole entry): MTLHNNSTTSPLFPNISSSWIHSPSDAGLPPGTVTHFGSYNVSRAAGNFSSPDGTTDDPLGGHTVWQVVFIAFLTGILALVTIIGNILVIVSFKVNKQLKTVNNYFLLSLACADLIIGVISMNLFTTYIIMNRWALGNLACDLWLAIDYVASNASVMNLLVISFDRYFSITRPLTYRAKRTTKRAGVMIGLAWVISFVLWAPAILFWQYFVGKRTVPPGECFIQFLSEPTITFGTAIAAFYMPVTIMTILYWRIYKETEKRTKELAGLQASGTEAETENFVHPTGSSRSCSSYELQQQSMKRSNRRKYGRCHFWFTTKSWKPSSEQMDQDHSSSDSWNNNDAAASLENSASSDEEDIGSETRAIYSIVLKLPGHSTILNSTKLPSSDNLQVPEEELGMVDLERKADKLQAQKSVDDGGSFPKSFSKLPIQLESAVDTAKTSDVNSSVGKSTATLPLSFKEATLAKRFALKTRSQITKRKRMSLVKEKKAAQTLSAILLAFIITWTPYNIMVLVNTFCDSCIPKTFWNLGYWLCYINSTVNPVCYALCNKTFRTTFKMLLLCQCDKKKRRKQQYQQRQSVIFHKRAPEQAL

M4 (h) = target: T8, M4 (h) (Homo sapiens, UniProt P08173); assay: Receptor binding screen, [^3H]4-DAMP; settings: 10 uM Concentration of Compound I-1-Z; read-out: Mean Value, percent inhibition of control specific binding: M4 (h)
T8 construct: expressed in transfected cells; host or cells: CHO cells
T8 sequence (P08173 whole entry): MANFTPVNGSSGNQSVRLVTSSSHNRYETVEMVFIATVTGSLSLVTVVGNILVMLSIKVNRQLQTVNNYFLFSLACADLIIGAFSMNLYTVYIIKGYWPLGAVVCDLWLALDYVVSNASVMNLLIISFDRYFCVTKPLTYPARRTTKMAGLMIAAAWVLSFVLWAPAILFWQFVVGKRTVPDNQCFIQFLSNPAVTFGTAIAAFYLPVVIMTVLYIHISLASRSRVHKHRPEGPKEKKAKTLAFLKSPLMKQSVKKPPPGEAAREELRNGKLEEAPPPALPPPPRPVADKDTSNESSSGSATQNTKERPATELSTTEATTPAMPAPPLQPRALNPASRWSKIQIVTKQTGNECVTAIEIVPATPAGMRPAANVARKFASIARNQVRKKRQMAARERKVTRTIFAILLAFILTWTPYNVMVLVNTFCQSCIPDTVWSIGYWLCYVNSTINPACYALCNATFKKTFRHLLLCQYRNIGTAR

M5 (h) = target: T9, M5 (h) (Homo sapiens, UniProt P08912); assay: Receptor binding screen, [^3H]4-DAMP; settings: 10 uM Concentration of Compound I-1-Z; read-out: Mean Value, percent inhibition of control specific binding: M5 (h)
T9 construct: expressed in transfected cells; host or cells: CHO cells

NK3 (h) = target: T10, NK3 (h) (Homo sapiens, UniProt P29371); assay: Receptor binding screen, [^3H]SR 142801; settings: 10 uM Concentration of Compound I-1-Z; read-out: Mean Value, percent inhibition of control specific binding: NK3 (h)
T10 construct: expressed in transfected cells; host or cells: CHO cells
T10 sequence (P29371 whole entry): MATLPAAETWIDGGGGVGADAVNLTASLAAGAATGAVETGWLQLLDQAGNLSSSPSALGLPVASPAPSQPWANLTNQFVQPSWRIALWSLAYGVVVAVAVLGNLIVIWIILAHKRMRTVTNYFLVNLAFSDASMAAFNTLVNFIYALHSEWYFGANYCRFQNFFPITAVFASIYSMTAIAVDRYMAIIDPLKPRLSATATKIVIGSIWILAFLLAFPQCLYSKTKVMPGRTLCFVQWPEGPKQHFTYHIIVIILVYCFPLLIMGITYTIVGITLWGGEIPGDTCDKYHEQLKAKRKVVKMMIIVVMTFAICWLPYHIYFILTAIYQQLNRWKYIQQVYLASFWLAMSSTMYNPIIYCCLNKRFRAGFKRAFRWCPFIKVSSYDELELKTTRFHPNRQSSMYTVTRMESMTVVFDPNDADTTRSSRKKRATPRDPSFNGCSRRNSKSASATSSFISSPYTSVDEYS

Y2 (h) = target: T11, Y2 (h) (Homo sapiens, UniProt P49146); assay: Receptor binding screen, [^125I]peptide YY, KAN-TS cells; settings: 10 uM Concentration of Compound I-1-Z; read-out: Mean Value, percent inhibition of control specific binding: Y2 (h)
T11 construct: KAN-TS cells; endogenous in cells; host or cells: KAN-TS cells
T11 sequence (P49146 whole entry): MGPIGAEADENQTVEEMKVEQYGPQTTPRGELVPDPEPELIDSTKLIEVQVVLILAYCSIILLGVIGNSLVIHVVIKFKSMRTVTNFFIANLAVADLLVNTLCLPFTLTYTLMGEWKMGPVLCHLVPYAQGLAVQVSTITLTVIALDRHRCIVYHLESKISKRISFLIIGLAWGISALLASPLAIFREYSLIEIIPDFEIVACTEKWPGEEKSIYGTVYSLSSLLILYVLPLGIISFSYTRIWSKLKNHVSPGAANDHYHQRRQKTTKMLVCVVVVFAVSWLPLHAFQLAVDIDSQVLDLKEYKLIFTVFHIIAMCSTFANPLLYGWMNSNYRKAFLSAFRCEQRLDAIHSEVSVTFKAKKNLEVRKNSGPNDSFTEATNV

TXA2/PGH2 (h) (TP) = target: T12, TXA2/PGH2 (h) (TP) (Homo sapiens, UniProt P21731); assay: Receptor binding screen, [^3H]SQ 29548, human platelets; settings: 10 uM Concentration of Compound I-1-Z; read-out: Mean Value, percent inhibition of control specific binding: TXA2/PGH2 (h) (TP)
T12 construct: human platelets; endogenous in cells; host or cells: human platelets
T12 sequence (P21731 whole entry): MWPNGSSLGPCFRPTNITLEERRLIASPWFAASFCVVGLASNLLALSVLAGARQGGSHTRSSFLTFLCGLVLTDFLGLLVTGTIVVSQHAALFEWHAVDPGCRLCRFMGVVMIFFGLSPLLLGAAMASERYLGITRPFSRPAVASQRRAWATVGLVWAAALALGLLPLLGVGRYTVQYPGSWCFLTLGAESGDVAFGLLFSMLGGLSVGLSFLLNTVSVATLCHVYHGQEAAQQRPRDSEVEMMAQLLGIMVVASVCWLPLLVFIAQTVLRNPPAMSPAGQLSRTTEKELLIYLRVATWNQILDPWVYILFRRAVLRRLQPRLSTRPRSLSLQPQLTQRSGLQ

P2X = assay: Receptor binding screen, [^3H]α,β-MeATP, rat urinary bladder; settings: 10 uM Concentration of Compound I-1-Z
5-HT3 (h) = target: T13, 5-HT3 (h) (Homo sapiens, UniProt P46098); assay: Receptor binding screen, [^3H]BRL 43694; settings: 10 uM Concentration of Compound I-1-Z; read-out: Mean Value, percent inhibition of control specific binding: 5-HT3 (h)
T13 construct: expressed in transfected cells; host or cells: CHO cells

sst (non-selective) = assay: Receptor binding screen, [^125I]Tyr^11-somatostatin, AtT-20 cells; settings: 10 uM Concentration of Compound I-1-Z
Method: as §1

VIP1 (h) (VPAC1) = target: T14, VIP1 (h) (VPAC1) (Homo sapiens, UniProt P32241); assay: Receptor binding screen, [^125I]VIP; settings: 10 uM Concentration of Compound I-1-Z; read-out: Mean Value, percent inhibition of control specific binding: VIP1 (h) (VPAC1)
T14 construct: expressed in transfected cells; host or cells: CHO cells
T14 sequence (P32241 31-457): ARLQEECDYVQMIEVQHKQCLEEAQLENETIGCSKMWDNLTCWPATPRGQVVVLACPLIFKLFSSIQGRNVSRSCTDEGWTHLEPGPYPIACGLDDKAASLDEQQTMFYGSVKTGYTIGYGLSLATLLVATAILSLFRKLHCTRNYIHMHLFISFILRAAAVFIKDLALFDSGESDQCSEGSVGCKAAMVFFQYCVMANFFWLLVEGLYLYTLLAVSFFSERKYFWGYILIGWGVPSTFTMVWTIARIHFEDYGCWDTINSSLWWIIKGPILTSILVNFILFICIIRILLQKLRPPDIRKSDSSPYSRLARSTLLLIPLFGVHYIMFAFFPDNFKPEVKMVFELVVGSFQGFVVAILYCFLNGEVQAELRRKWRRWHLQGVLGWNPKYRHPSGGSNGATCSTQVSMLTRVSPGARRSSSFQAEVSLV

SK^+Ca channel = assay: Receptor binding screen, [^125I]apamin; design: species or system rat; settings: 10 uM Concentration of Compound I-1-Z
Method: as §1

NE transporter (h) = target: T15, NE transporter (h) (Homo sapiens, UniProt P23975); assay: Receptor binding screen, [^3H]nisoxetine; settings: 10 uM Concentration of Compound I-1-Z; read-out: Mean Value, percent inhibition of control specific binding: NE transporter (h)
T15 construct: expressed in transfected cells; host or cells: CHO cells
T15 sequence (P23975 whole entry): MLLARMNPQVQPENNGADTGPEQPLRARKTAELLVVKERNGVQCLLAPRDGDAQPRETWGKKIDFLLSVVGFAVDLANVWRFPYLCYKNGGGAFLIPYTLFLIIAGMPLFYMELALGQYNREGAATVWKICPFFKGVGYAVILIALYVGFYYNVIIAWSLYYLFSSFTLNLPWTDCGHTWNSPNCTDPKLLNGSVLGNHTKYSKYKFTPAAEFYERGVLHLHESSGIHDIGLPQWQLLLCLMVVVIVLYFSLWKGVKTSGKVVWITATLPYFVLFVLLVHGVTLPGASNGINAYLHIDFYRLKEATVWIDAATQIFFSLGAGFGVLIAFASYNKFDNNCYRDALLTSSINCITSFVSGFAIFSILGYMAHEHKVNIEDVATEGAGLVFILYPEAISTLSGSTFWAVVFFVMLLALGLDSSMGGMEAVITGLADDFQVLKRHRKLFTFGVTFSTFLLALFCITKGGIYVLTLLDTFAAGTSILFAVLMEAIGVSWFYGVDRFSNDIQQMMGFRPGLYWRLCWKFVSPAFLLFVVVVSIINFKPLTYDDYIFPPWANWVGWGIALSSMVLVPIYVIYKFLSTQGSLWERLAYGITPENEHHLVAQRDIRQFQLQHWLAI

`COc1ccc(C/C(=C/F)CN)cc1.Cl` [Compound I-1-Z, (Z)-3-Fluoro-2-(4-methoxybenzyl)-allylamine hydrochloride] was tested. Which “incidence of arthritis and clinical scores as compared to PBS” value ([1]; 5 mg/kg p.o. day 0 to day 28) did it give?
The value was “reduced both the incidence of arthritis and the clinical scores”.

What about the clinical efficacy ([1]; 30 mg/kg p.o. day 0 to day 28) of the same compound?
Its clinical efficacy is “no clinical efficacy was observed”.

What about the inhibition at 10 µM (A1 (h)) of the same compound?
Its inhibition at 10 µM is -3%.

And the inhibition at 10 µM (A2A (h))?
The inhibition at 10 µM was 13%.

And the “Mean Value, percent inhibition of control specific binding: BZD (central)” value (BZD (central))?
The value was 14%.

And the inhibition at 10 µM (BZD (peripheral))?
The inhibition at 10 µM was -6%.

And the “Mean Value, percent inhibition of control specific binding: BB (non-selective)” value (BB (non-selective))?
The value was 21%.

What about the inhibition at 10 µM (CB1 (h)) of the same compound?
Its inhibition at 10 µM is 14%.

What about the “Mean Value, percent inhibition of control specific binding: PDGF” value (PDGF) of the same compound?
Its value is −14%.

What about the inhibition at 10 µM (MC4 (h)) of the same compound?
Its inhibition at 10 µM is 8%.

And the inhibition at 10 µM (MT1 (h))?
Its inhibition at 10 µM is 0%.

And the inhibition at 10 µM (M3 (h))?
Its inhibition at 10 µM is 16%.

What about the inhibition at 10 µM (M4 (h)) of the same compound?
The inhibition at 10 µM was 22%.

What about the inhibition at 10 µM (M5 (h)) of the same compound?
Its inhibition at 10 µM is 27%.

What about the inhibition at 10 µM (NK3 (h)) of the same compound?
The inhibition at 10 µM was 1%.

What about the inhibition at 10 µM (Y2 (h)) of the same compound?
The inhibition at 10 µM was 11%.

And the inhibition at 10 µM (TXA2/PGH2 (h) (TP))?
Its inhibition at 10 µM is 4%.

What about the “Mean Value, percent inhibition of control specific binding: P2X” value (P2X) of the same compound?
The value was −2%.

And the inhibition at 10 µM (5-HT3 (h))?
The inhibition at 10 µM was 4%.

And the “Mean Value, percent inhibition of control specific binding: sst (non-selective)” value (sst (non-selective))?
Its value is −4%.

What about the inhibition at 10 µM (VIP1 (h) (VPAC1)) of the same compound?
Its inhibition at 10 µM is -13%.

What about the “Mean Value, percent inhibition of control specific binding: SK^+Ca channel” value (SK^+Ca channel) of the same compound?
The value was 4%.

And the inhibition at 10 µM (NE transporter (h))?
Its inhibition at 10 µM is 68%.
